Laboratory results as given in paper PMC9378703 (Nature Communications, 2022).

Key:
[1] = target: T1, Uba1 (Saccharomyces cerevisiae, UniProt P22515, D472A); assay: colorimetric ATPase assay (BIOMOL-GREEN phosphate, pyrophosphatase-coupled); type: biochemical; details: 80 μM ubiquitin, 1 mM ATP, 2 mM MgCl2, pH 7.5, 30 °C; turnover
T1 construct: residues 10-1024; N-terminal His-tag (pET28a); expressed in E. coli BL21 (DE3)

[2] = target: T2, Uba1 (Saccharomyces cerevisiae, UniProt P22515, D544E); assay: as above; type: biochemical; details: 80 μM ubiquitin, 1 mM ATP, 2 mM MgCl2, pH 7.5, 30 °C; turnover
T2 construct: residues 10-1024; N-terminal His-tag (pET28a); expressed in E. coli BL21 (DE3)
T2 sequence (P22515 10-1024 D544E): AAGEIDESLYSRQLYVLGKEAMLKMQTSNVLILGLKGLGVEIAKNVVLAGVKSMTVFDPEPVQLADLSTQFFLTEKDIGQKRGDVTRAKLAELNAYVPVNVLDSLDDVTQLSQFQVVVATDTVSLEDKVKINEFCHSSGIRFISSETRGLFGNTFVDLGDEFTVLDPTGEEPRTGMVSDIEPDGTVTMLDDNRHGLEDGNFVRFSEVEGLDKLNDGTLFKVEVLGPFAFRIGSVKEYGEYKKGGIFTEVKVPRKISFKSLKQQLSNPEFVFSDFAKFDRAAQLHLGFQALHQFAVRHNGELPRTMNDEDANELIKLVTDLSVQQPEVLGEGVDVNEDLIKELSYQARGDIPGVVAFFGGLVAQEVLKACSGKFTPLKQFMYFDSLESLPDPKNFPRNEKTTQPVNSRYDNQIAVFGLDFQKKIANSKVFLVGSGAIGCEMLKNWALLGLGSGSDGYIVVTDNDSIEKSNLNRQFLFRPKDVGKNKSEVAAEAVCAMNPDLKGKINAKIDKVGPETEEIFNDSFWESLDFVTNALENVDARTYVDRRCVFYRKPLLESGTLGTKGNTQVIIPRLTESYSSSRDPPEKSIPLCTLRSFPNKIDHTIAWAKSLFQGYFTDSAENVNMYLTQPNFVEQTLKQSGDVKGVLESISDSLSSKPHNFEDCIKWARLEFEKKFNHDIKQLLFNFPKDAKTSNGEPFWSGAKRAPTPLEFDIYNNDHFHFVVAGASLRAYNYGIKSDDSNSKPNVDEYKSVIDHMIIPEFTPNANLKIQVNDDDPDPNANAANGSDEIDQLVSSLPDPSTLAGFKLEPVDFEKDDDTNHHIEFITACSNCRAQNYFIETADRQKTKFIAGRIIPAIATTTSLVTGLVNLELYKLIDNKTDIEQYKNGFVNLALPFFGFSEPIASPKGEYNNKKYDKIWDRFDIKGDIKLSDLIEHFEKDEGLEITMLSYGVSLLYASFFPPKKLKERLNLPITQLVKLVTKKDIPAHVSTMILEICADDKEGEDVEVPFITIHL

T1 sequence (P22515 10-1024 D472A): as the sequence (P22515 10-1024 D544E) above, with D463A, E535D counted along it

Nc1ncnc2c1ncn2[C@@H]1O[C@H](COP(=O)(O)OP(=O)(O)OP(=O)(O)O)[C@@H](O)[C@H]1O [ATP]
colorimetric ATPase assay (BIOMOL-GREEN phosphate, pyrophosphatase-coupled) [1]: the D472A variant retained full activity as did the D472E or D544E substitutions
colorimetric ATPase assay (BIOMOL-GREEN phosphate, pyrophosphatase-coupled) [2]: the D472A variant retained full activity as did the D472E or D544E substitutions
